# In ChEMBL document CHEMBL1128293, “4,4-Disubstituted piperidines: a new class of NK1 antagonist” (J Med Chem, 1995):
# Molecular target: Substance-P receptor (Homo sapiens, UniProt P25103)
# Test: Antagonistic activity against human Tachykinin receptor 1
# Assay type: functional
# Chain of Substance-P receptor (P25103 whole entry): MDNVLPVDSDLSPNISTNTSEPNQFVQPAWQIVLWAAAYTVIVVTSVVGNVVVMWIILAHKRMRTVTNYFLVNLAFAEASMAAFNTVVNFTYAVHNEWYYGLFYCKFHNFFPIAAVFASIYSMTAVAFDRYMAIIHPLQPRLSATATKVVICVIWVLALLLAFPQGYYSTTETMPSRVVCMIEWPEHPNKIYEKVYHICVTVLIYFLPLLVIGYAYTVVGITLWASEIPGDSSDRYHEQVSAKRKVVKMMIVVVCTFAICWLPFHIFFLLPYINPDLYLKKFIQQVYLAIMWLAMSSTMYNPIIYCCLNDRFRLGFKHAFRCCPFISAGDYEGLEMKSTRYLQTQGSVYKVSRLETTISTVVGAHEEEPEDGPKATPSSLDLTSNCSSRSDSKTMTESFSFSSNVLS
row,SMILES,IC50 [nM]
1,FC(F)(F)c1cccc(COCC2(c3ccccc3)CCNCC2)c1,57
2,Cc1cc(C)cc(COCC2(c3ccccc3)CCNCC2)c1,9
3,Clc1cc(Cl)cc(COCC2(c3ccccc3)CCNCC2)c1,4.6
